Data published in patent publication US8269026B2, “Lupane derivatives useful for treating HIV” (priority 2008, dated 2012).
Counter-ions that a name gives are not always drawn.

system: HIV-1 (HIVIIIB) replication in MT2 cell line; assay: HIV-1 replication in MT2 cell line with and without 30% human serum (viral RT activity in supernatant); format: cell-based; conditions: Human immunodeficiency virus 1, MT2 cells, with 30% human serum, average IC50 if tested more than once, read-out: MT2 (HIVIIIB) with HS 30% IC50 range
In short: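 Read-out is supernatant reverse transcriptase activity on day 5 post-infection, giving IC50 and IC90. Compounds were titrated in complete medium ± 30% human serum, re-dosed after 3 days, on MT2 cells exposed for 3 h to HIVIIIB at MOI 0.5 then washed.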

Compound | IC50 [nM]
Cc1nnc(C(=O)N(C)[C@@]23CC[C@]4(C)[C@H](CC[C@@H]5[C@@]6(C)CC[C@H](OC(=O)CC(C)(C)C(=O)O)C(C)(C)[C@@H]6CC[C@]54C)C2=C(C(C)C)C(=O)C3)o1 [19-69, 3β-O-(3′,3′-Dimethylsuccinyl)-17β-[methyl-(5-methyl-[1,3,4]oxadiazole-2-carbonyl)-amino]-21-oxolup-18-ene] | < 199
Cc1cnc(C(=O)N[C@@]23CC[C@]4(C)C(CCC5[C@@]6(C)CC[C@H](OC(=O)CC(C)(C)C(=O)O)C(C)(C)C6CC[C@]54C)C2=C(C(C)C)C(=O)C3)o1 (stereo partly drawn) [19-80, 3β-O-(3′,3′-Dimethylsuccinyl)-17β-(5-methyl-[1,3]-oxazole-2-amido)-21-oxolup-18-ene] | < 199
CC(C)C1=C2C3CCC4[C@@]5(C)CC[C@H](OC(=O)CC(C)(C)C(=O)O)C(C)(C)C5CC[C@@]4(C)[C@]3(C)CC[C@@]2(NC(=O)CN2CCC2)CC1=O (stereo partly drawn) [19-73, 3β-O-(3′,3′-Dimethylsuccinyl)-17β-(1-azetidin-acetamido)-21-oxolup-18-ene] | < 199
Cc1cc(NC(=O)N[C@@]23CC[C@]4(C)[C@H](CC[C@@H]5[C@@]6(C)CC[C@H](OC(=O)CC(C)(C)C(=O)O)C(C)(C)[C@@H]6CC[C@]54C)C2=C(C(C)C)C(=O)C3)ccn1 [17-47, 3β-O-(3′,3′-Dimethylsuccinyl)-17β-(N′-2-methylpyridin-4-yl-ureido)-21-oxolup-18-ene] | < 199
CC(C)C1=C2[C@H]3CC[C@@H]4[C@@]5(C)CC[C@H](OC(=O)CC(C)(C)C(=O)O)C(C)(C)[C@@H]5CC[C@@]4(C)[C@]3(C)CC[C@@]2(NC(=O)CN(C)C)CC1=O [19-53, 3β-O-(3′,3′-Dimethylsuccinyl)-17β-(2-dimethylamino-acetamido)-21-oxolup-18-ene] | < 199
CC(C)C1=C2C3CCC4[C@@]5(C)CC[C@H](OC(=O)CC(C)(C)C(=O)O)C(C)(C)C5CC[C@@]4(C)[C@]3(C)CC[C@@]2(NC(=O)NCC2CCCCC2)CC1=O (stereo partly drawn) [17-8, 3β-O-(3′,3′-Dimethylsuccinyl)-17β-[N′-(cyclohexylmethyl)ureido]-21-oxolup-18-ene] | < 199
CC(C)C1=C2[C@H]3CC[C@@H]4[C@@]5(C)CC[C@H](OC(=O)CC(C)(C)C(=O)O)C(C)(C)[C@@H]5CC[C@@]4(C)[C@]3(C)CC[C@@]2(NC(=O)C2CCN(C)CC2)CC1=O [19-36, 3β-O-(3′,3′-Dimethylsuccinyl)-17β-(1-methylpiperidine-4-amido)-21-oxolup-18-ene] | < 199
CC(C)C1=C2[C@H]3CC[C@@H]4[C@@]5(C)CC[C@H](OC(=O)CC(C)(C)C(=O)O)C(C)(C)[C@@H]5CC[C@@]4(C)[C@]3(C)CC[C@@]2(NC2CCN(C(=O)OC(C)(C)C)CC2)CC1=O [16-1, 3β-O-(3′,3′-Dimethylsuccinyl)-17β-(1-tert-butyloxycarbonylpiperidine-4-amino]-21-oxolup-18-ene] | < 199
CC(C)C1=C2C3CCC4[C@@]5(C)CC[C@H](OC(=O)CC(C)(C)C(=O)O)C(C)(C)C5CC[C@@]4(C)[C@]3(C)CC[C@@]2(NC(=O)c2ccncn2)CC1=O (stereo partly drawn) [19-25, 3β-O-(3′,3′-Dimethylsuccinyl)-17β-(pyrimidine-4-amido)-21-oxolup-18-ene] | < 199
CC(C)C1=C2C3CCC4[C@@]5(C)CC[C@H](OC(=O)CC(C)(C)C(=O)O)C(C)(C)C5CC[C@@]4(C)[C@]3(C)CC[C@@]2(NC(=O)[C@@H]2CCCN2C(=O)OC(C)(C)C)CC1=O (stereo partly drawn) [19-57] | < 199
CCNC(=O)N[C@@]12CC[C@]3(C)[C@H](CC[C@@H]4[C@@]5(C)CC[C@H](OC(=O)CC(C)(C)C(=O)O)C(C)(C)[C@@H]5CC[C@]43C)C1=C(C(C)C)C(=O)C2 [17-2, 3β-O-(3′,3′-Dimethylsuccinyl)-17β-[N′-(ethyl)ureido]-21-oxolup-18-ene] | < 199
Cc1cc(C(=O)N[C@@]23CC[C@]4(C)[C@H](CC[C@@H]5[C@@]6(C)CC[C@H](OC(=O)CC(C)(C)C(=O)O)C(C)(C)[C@@H]6CC[C@]54C)C2=C(C(C)C)C(=O)C3)ccn1 [19-52, 3β-O-(3′,3′-Dimethylsuccinyl)-17β-(2-methylpyridin-4-yl)amido-21-oxolup-18-ene] | < 199
Cc1ccncc1C(=O)N[C@@]12CC[C@]3(C)[C@H](CC[C@@H]4[C@@]5(C)CC[C@H](OC(=O)CC(C)(C)C(=O)O)C(C)(C)[C@@H]5CC[C@]43C)C1=C(C(C)C)C(=O)C2 [19-49, 3β-O-(3′,3′-Dimethylsuccinyl)-17β-(4-methylpyridin-3-yl)amido-21-oxolup-18-ene] | < 199
CC(C)C1=C2C3CCC4[C@@]5(C)CC[C@H](OC(=O)CC(C)(C)C(=O)O)C(C)(C)C5CC[C@@]4(C)[C@]3(C)CC[C@@]2(NC(=O)c2nnc(-c3ccccc3)o2)CC1=O (stereo partly drawn) [19-63, 3β-O-(3′,3′-Dimethylsuccinyl)-17β-(5-phenyl-[1,3,4]oxadiazole-2-amido)-21-oxolup-18-ene] | < 199
CC(C)C1=C2[C@H]3CC[C@@H]4[C@@]5(C)CC[C@H](OC(=O)CC(C)(C)C(=O)O)C(C)(C)[C@@H]5CC[C@@]4(C)[C@]3(C)CC[C@@]2(N)CC1=O [15-1, 3β-O-(3′,3′-Dimethylsuccinyl)-17β-amino-21-oxolup-18-ene hydrochloride] | < 199
CC(C)C1=C2C3CCC4[C@@]5(C)CC[C@H](OC(=O)CC(C)(C)C(=O)O)C(C)(C)C5CC[C@@]4(C)[C@]3(C)CC[C@@]2(NC(=O)OC2CCS(=O)(=O)CC2)CC1=O (stereo partly drawn) [20-15, 3β-O-(3′,3′-Dimethylsuccinyl)-17β-(1,1-dioxo-tetrahydro-thiopyran-4-oxycarbonylamino)-21-oxolup-18-ene] | < 199
CCc1nnc(C(=O)N[C@@]23CC[C@]4(C)C(CCC5[C@@]6(C)CC[C@H](OC(=O)CC(C)(C)C(=O)O)C(C)(C)C6CC[C@]54C)C2=C(C(C)C)C(=O)C3)o1 (stereo partly drawn) [19-79, 3β-O-(3′,3′-Dimethylsuccinyl)-17β-(5-ethyl-[1,3,4]-oxadiazole-2-amido)-21-oxolup-18-ene] | < 199
CC(C)C1=C2[C@H]3CC[C@@H]4[C@@]5(C)CC[C@H](OC(=O)CC(C)(C)C(=O)O)C(C)(C)[C@@H]5CC[C@@]4(C)[C@]3(C)CC[C@@]2(NC(=O)c2ccn(C)n2)CC1=O [19-17, 3β-O-(3′,3′-Dimethylsuccinyl)-17β-(1-methyl-1H-pyrazole-3-amido)-21-oxolup-18-ene] | < 199
CC(C)C1=C2[C@H]3CC[C@@H]4[C@@]5(C)CC[C@H](OC(=O)CC(C)(C)C(=O)O)C(C)(C)[C@@H]5CC[C@@]4(C)[C@]3(C)CC[C@@]2(NC(=O)CN2CCN(C)CC2)CC1=O [19-54, 3β-O-(3′,3′-Dimethylsuccinyl)-17β-(4-methylpiperazine-1-acetamido)-21-oxolup-18-ene] | < 199
Cc1nc(C(=O)N[C@@]23CC[C@]4(C)C(CCC5[C@@]6(C)CC[C@H](OC(=O)CC(C)(C)C(=O)O)C(C)(C)C6CC[C@]54C)C2=C(C(C)C)C(=O)C3)cs1 (stereo partly drawn) [19-72, 3β-O-(3′,3′-Dimethylsuccinyl)-17β-(2-methyl-1,3-thiazole-4-amido)-21-oxolup-18-ene] | < 199
CC(C)C1=C2C3CCC4[C@@]5(C)CC[C@H](OC(=O)CC(C)(C)C(=O)O)C(C)(C)C5CC[C@@]4(C)[C@]3(C)CC[C@@]2(NC(=O)OC2CCSCC2)CC1=O (stereo partly drawn) [20-14, 3β-O-(3′,3′-Dimethylsuccinyl)-17β-(tetrahydro-thiopyran-4-oxycarbonylamino)-21-oxolup-18-ene] | < 199
CC(C)C1=C2C3CCC4[C@@]5(C)CC[C@H](OC(=O)CC(C)(C)C(=O)O)C(C)(C)C5CC[C@@]4(C)[C@]3(C)CC[C@@]2(NC(=O)N2CCC(F)(F)CC2)CC1=O (stereo partly drawn) [17-59, 3β-O-(3′,3′-Dimethylsuccinyl)-17β-[(4,4-difluoro-piperidine-1-carbonyl)-amino]-21-oxolup-18-ene] | < 199
CC(C)C1=C2C3CCC4[C@@]5(C)CC[C@H](OC(=O)CC(C)(C)C(=O)O)C(C)(C)C5CC[C@@]4(C)[C@]3(C)CC[C@@]2(NC(=O)OCC2CCN(C)C2)CC1=O (stereo partly drawn) [20-21, 3β-O-(3′,3′-Dimethylsuccinyl)-17β-(1-methylpyrrolidine-3-methoxycarbonylamino)-21-oxolup-18-ene] | < 199
CC(C)C1=C2[C@H]3CC[C@@H]4[C@@]5(C)CC[C@H](OC(=O)CC(C)(C)C(=O)O)C(C)(C)[C@@H]5CC[C@@]4(C)[C@]3(C)CC[C@@]2(NC(=O)N2CCOCC2)CC1=O [17-13, 3β-O-(3′,3′-Dimethylsuccinyl)-17β-[(morpholine-4-carbonyl)-amino]-21-oxolup-18-ene] | < 199
CC(C)C1=C2C3CCC4[C@@]5(C)CC[C@H](OC(=O)CC(C)(C)C(=O)O)C(C)(C)C5CC[C@@]4(C)[C@]3(C)CC[C@@]2(NC(=O)OCC2(C)CC2)CC1=O (stereo partly drawn) [20-11, 3β-O-(3′,3′-Dimethylsuccinyl)-17β-(1-methyl-cyclopropylmethoxycarbonylamino)-21-oxolup-18-ene] | < 199
CC(C)C1=C2C3CCC4[C@@]5(C)CC[C@H](OC(=O)CC(C)(C)C(=O)O)C(C)(C)C5CC[C@@]4(C)[C@]3(C)CC[C@@]2(NC(=O)N[C@@H](C)c2ccccc2)CC1=O (stereo partly drawn) [17-61, 3β-O-(3′,3′-Dimethylsuccinyl)-17β-[N′-((S)-1-phenyl-ethyl)-ureido]-21-oxolup-18-ene] | < 199

same assay, conditions: Human immunodeficiency virus 1, MT2 cells, without human serum, average IC50 if tested more than once, read-out: MT2 (HIVIIIB) IC50 range

Compound | IC50 [nM]
CC(C)C1=C2[C@H]3CC[C@@H]4[C@@]5(C)CC[C@H](OC(=O)CC(C)(C)C(=O)O)C(C)(C)[C@@H]5CC[C@@]4(C)[C@]3(C)CC[C@@]2(NC2CCN(C(=O)OC(C)(C)C)CC2)CC1=O [16-1, 3β-O-(3′,3′-Dimethylsuccinyl)-17β-(1-tert-butyloxycarbonylpiperidine-4-amino]-21-oxolup-18-ene] | < 199
CCNC(=O)N[C@@]12CC[C@]3(C)[C@H](CC[C@@H]4[C@@]5(C)CC[C@H](OC(=O)CC(C)(C)C(=O)O)C(C)(C)[C@@H]5CC[C@]43C)C1=C(C(C)C)C(=O)C2 [17-2, 3β-O-(3′,3′-Dimethylsuccinyl)-17β-[N′-(ethyl)ureido]-21-oxolup-18-ene] | < 199
CC(C)C1=C2[C@H]3CC[C@@H]4[C@@]5(C)CC[C@H](OC(=O)CC(C)(C)C(=O)O)C(C)(C)[C@@H]5CC[C@@]4(C)[C@]3(C)CC[C@@]2(N)CC1=O [15-1, 3β-O-(3′,3′-Dimethylsuccinyl)-17β-amino-21-oxolup-18-ene hydrochloride] | < 199

same assay, conditions: read-out: MT2 (HIVIIIB) with HS 30% IC50 range, MT2 cells, with 30% human serum, average IC50 if tested more than once

Compound | IC50 [nM]
CC(C)C1=C2C3CCC4[C@@]5(C)CC[C@H](OC(=O)CC(C)(C)C(=O)O)C(C)(C)C5CC[C@@]4(C)[C@]3(C)CC[C@@]2(NC(=O)N2CCC(N)CC2)CC1=O (stereo partly drawn) [17-23, 3β-O-(3′,3′-Dimethylsuccinyl)-17β-[(4-amino-piperidine-1-carbonyl)-amino]-21-oxolup-18-ene trifluoroacetate] | 200 to 999
